Reference: patent publication US12396977B2, “Composition for treating degenerative brain diseases, containing 2-pentylfuran as active ingredient” (DAEGU GYEONGBUK INSTITUTE OF SCIENCE AND TECHNOLOGY, priority 2019, dated 2025)
“Also recorded” adds a separate entry of the source.

Assays:
primary microglia [1] = assay: Fura-2/AM calcium imaging of microglia; assay type: cell-based, mouse; settings: 2-PF 100, 300, 1000 μM
Experimental: The newly isolated microglia were placed on poly-D-lysine-coated 18-mm aperture microscope cover glasses (#0111580; Marienfeld), and after 24 hours, the microglia were cultured in a superfusion chamber for 30 minutes. The chamber contained 4 μM of Fura-2/AM (Ca^2+-sensitive fluorescent dye; #F1221; Thermo Fisher Scientific) in a 0.22 μm-filtered Ringer's solution (115 mM NaCl, 2.5 mM KCl, 1 mM CaCl2, 1.5 mM MgCl2, 4.5 mM HEPES, pH 7.4). After calcium staining culture, the chamber was placed under an inverted microscope and rinsed with Ringer's solution for 20 minutes before treatment with […]. In this case, the flow rate of the solution is 12 ml/min. Next, the primary microglia were treated with 300 μM ATP (#A2383; Sigma Aldrich) for 5 seconds. After being washed for 5 minutes, the primary microglia were treated with a 2-pentylfuran solution at a concentration of 100 μM for 5 seconds. This step was performed with a 2-pentylfuran solution at two concentrations (300 and 1000 μM). Finally, the primary microglia were treated with a 300 μM ATP solution for 5 seconds. The emitted fluorescent material was photographed using a CCD camera every 2 seconds. Pseudo-color images were converted using fractional fluorescence changes (ΔF/F, Δ[Ca^2+]i). Furthermore, these images show changes in intracellular calcium ions. […]

[2] = tested on: Hana3A cells expressing Olfr111; assay: Boyden chamber chemotaxis, Hana3A cells expressing Olfr111; assay type: cell-based; settings: 2-PF 10, 100, 1000 uM
Experimental: (§1) Cell chemotaxis was measured using a multiwell Boyden chamber. More specifically, a polycarbonate filter (8 μm pore; #101-8; Neuroprobe) was coated with […] fibronectin in PBS (Sigma-Aldrich) for 2 hours, and the coated filter was placed in a Boyden chamber. In addition, the bottom side of the plate was filled with serum-free DMEM containing 2-pentylfuran or a culture supernatant. Next, microglia or Hana3A cells were transfected with an odorant receptor structure and then suspended in serum-free DMEM. Subsequently, microglia and Hana3A cells were allowed to stand at 37° C. for 4 hours and 8 hours, respectively. Cells sinking to the bottom were fixed with 4% PFA, and stained with hematoxylin for 10 minutes. Fixed cells were counted under an optical microscope in 5 randomly selected fixed […] fields (200×) using a scored eyepiece. The chemical chemotaxis index was defined as the number of migrating cells using an untreated group as a standard.

Olfr110 = target: T1, Olfr110 (Mus musculus, UniProt A2RT31); assay: Luciferase assay in Hana3A cells, Olfr110; assay type: cell-based
T1 construct: Full-length odorant receptor genes from mouse and human genomic DNA were amplified using appropriate primers; Lucy (N); Flag (N); Rho (N); expressed in transfected cells; host or cells: Hana3A cells, co-transfected with RTP1S, pCRELuc and pRL-SV40
T1 sequence (A2RT31 1-317): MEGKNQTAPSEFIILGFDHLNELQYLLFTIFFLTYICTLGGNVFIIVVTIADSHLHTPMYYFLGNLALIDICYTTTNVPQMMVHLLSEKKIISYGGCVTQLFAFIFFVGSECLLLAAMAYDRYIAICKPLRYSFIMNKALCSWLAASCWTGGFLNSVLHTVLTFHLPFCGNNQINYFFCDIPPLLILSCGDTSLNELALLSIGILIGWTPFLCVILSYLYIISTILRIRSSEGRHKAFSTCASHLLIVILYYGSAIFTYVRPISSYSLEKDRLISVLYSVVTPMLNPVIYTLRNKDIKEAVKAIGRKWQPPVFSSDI
Experimental: Next, Hana3A cells were transfected with RTP1S, and their location and presence on the cell membrane were confirmed as previously described (Behrens et al., 2009; Zhuang and Matsunami, 2008). Such transfection was performed using Lipofectamine 2000 (#11668-019; Thermo Fisher Scientific) according to the manufacturer's instructions. More specifically, the transfected cells were grown on a coverslip (#0101050; Marienfeld) coated with poly D lysine (10 μg/ml; #P7280; Sigma Aldrich). Next, the cells were washed with a warm PBS solution and cooled with ice for 30 minutes to block endocytosis. […] The cells were then incubated with normal horse serum (#008-000-121; Jackson ImmunoResearch) at room temperature for 1 hour. […] After being washed with PBS, the cells were treated with a Cy3-conjugated donkey anti-mouse antibody (1:1,000; #715-165-150; Jackson ImmunoResearch), an Alexa488-conjugated donkey anti-mouse antibody (1:1,000; #715-545-150; Jackson ImmunoResearch), or a Cy3-conjugated donkey anti-rabbit antibody (1:1,000; #711-165-152; Jackson ImmunoResearch) at room temperature for 1 hour. The cells were mounted with a Vectashield fluorescent mounting medium containing DAPI (#H-1200; Vector Laboratories). The expression of heterologous odorant receptors was analyzed with a confocal laser scanning microscope LSM700 and ZEN software (Zeiss).
The Dual-Glo luciferase assay system (#E2940; Promega) was used for odorant receptor ligand screening. More specifically, Hana3A cells were streaked and spread on a white polystyrene 96-well plate (#353296; BD Biosciences) one day before transfection. pCRELuc (1 μg; #219076; Agilent Technologies), pRL-SV40 (1 μg; #E2231; Promega), RTP1S (1 μg), and OR (6 μg; or Mock) vectors were transfected for 24 hours in each plate. Each plate was analyzed using Lipofectamine 2000 (#11668-019; Thermo Fisher Scientific) according to the manufacturer's protocol. Transfected cells were stimulated in CD293 medium (#11913-019; Thermo Fisher Scientific) at 37° C. for 4 hours using diluted odorants at various concentrations. The activity of luciferase was normalized by the activity of Renilla luciferase. The amount of light emitted was measured using a SpectraMax L microplate reader (Molecular Devices).

primary microglia [3] = assay: Boyden chamber chemotaxis of primary microglia; assay type: cell-based, mouse; settings: 100, 300, and 500 μM
Experimental: as §1

microglia = assay: Ex vivo phagocytosis of microglia in brain slices (time-lapse confocal); design: species or system mouse; settings: brain slices of CX3CR1 GFP/+ mice
Experimental: In this experiment, in order to examine the phagocytotic action of microglia, the brain of a 9-week-old male CX3CR1^GFP/+ mouse was cut to a thickness of 150 μm using a vibratome (Leica VT1200) and then stored in an ice-cooled artificial cerebrospinal fluid (aCSF: 120 mM NaCl, […], 25 mM NaHCO3, 1.25 mM NaH2PO4, 5 mM KCl, 1 mM CaCl2, 1 mM MgSO4, […], pH7.4). Thereafter, the sliced brain was cultured for removal of cell debris. Oxygenated aCSF was pretreated in a perfusion chamber at 37° C. for 2 hours. Subsequently, before culture, the sliced brain was cultured with 500 μl of aCSF containing 9.10×10^7 microspheres ([…]; #17458; Polysciences) and covered with a custom-made nylon grid. Time lapse videos were taken at intervals of 1 minute for 92 minutes using a confocal microscope. The number of phagocytosing microglia was calculated from the images.

primary microglia [4] = assay: Active oxygen (ROS) production in primary microglia; assay type: cell-based, mouse
Experimental: Superoxide concentrations were calculated by measuring the degree of decrease in cytochrome c using a VersaMax microplate reader (Babior et al., 1973). Microglia were cultured on a 96-well plate at a concentration of 1.0×10^5 cells/well, and the microglia were activated by a 10 μM ATP solution containing 2-pentylfuran and cytochrome c, or a solution of Sup mixed with cytochalasin B (5 μM; #C66762; Sigma Aldrich). The resulting ROS concentration was measured by changes in light absorption at 550 nm at intervals of 1 minute for 25 minutes.
Active oxygen levels were measured using 2′,7′-dichlorodihydrofluorescein diacetate (DCF-DA, #D6883; Sigma Aldrich) using a method that had undergone minor modifications from the existing method. (Bae et al., 2001). More specifically, the primary microglia were treated with 10 μM DCF-DA in a 24-well plate (5.0×10^5 cells/well) […] at a temperature of 37° C. for 30 minutes. One plate was treated with 2-PF and one was not. Cells in each well were measured by a flow cytometer (FACS Accuri™ C6; BD Biosciences). MFI was measured in the same manner as described above.

primary microglia [5] = assay: Phagocytosis of FITC-dextran by primary microglia (FACS); assay type: cell-based, mouse; settings: 100, 300, and 500 μM
Experimental: Primary microglia were cultured for 24 hours after being seeded in a 24-well plate (5×10^5 cells/well). Cells were pre-cultured with 2-PF or Sup for 30 minutes, transferred to FITC-dextran (1 mg/ml, 20 mg/ml in PBS; #FD70S; Sigma Aldrich) in serum-free DMEM at 37° C. for […], and washed with PBS at 4° C. Cells were detached by 0.25% trypsin in PBS (#15090-046; Thermo Fisher Scientific) and the detached cells were analyzed by FACS Accuri™ C6 (BD Biosciences). Mean fluorescence intensity (MFI) was calculated by integrating fluorescence histograms under each condition using the aforementioned software. The phagocytosis index was defined as MFI using an untreated group as a standard.

SMILES: CCCCCc1ccco1 [2-PF, 2-pentylfuran]
- intracellular calcium ion levels (primary microglia [1]): increased according to an injection amount
- mobility (chemotaxis) of Olfr111-expressing Hana3A cells [2]: increased in mobility in a concentration-dependent manner
- mode of action at Olfr110 (Olfr110): agonist
- reactivity of Olfr110 (relative luciferase activity) (Olfr110; Hana3A cells): particularly strong reactivity; also recorded: strongest reactivity
- chemotaxis of microglia (primary microglia [3]): significantly increased in a concentration-dependent manner
- ex vivo phagocytosis activity of microglia (microglia): increased
- production of active oxygen on top of Sup MOI 5 (primary microglia [4]; 500 μM 2-PF): further increased
- active oxygen secretion of microglia (primary microglia [4]; 100, 300, and 500 μM): significantly increased in a concentration-dependent manner
- phagocytosis of microglia (primary microglia [5]): significantly increased in a concentration-dependent manner
